From PubChem BioAssay (NCI)
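Test compounds were applied to cells in 96-well plates for 48 hours at 5 doses. GI50 = concentration required for 50% inhibition of growth. The concentration for full growth arrest is given as TGI.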

Key:
Experiment in all cases: NCI anticancer screen, dose series, 48 h
786-0 renal = tested on: 786-0 renal
A498 renal = tested on: A498 renal
A549 NSCLC = tested on: A549 NSCLC
ACHN renal = tested on: ACHN renal
CAKI-1 renal = tested on: CAKI-1 renal
CCRF-CEM leukemia = tested on: CCRF-CEM leukemia
COLO 205 colon = tested on: COLO 205 colon
DU-145 prostate = tested on: DU-145 prostate
EKVX NSCLC = tested on: EKVX NSCLC
HCC-2998 colon = tested on: HCC-2998 colon
HCT-116 colon = tested on: HCT-116 colon
HCT-15 colon = tested on: HCT-15 colon
HL-60(TB) leukemia = tested on: HL-60(TB) leukemia
HOP-62 NSCLC = tested on: HOP-62 NSCLC
HOP-92 NSCLC = tested on: HOP-92 NSCLC
HS 578T breast = tested on: HS 578T breast
HT29 colon = tested on: HT29 colon
IGROV1 ovarian = tested on: IGROV1 ovarian
KM12 colon = tested on: KM12 colon
LOX IMVI melanoma = tested on: LOX IMVI melanoma
M14 melanoma = tested on: M14 melanoma
MALME-3M melanoma = tested on: MALME-3M melanoma
MCF7 breast = tested on: MCF7 breast
MDA-MB-231 breast = tested on: MDA-MB-231 breast
MDA-MB-435 = tested on: MDA-MB-435
MDA-N = tested on: MDA-N
MOLT-4 leukemia = tested on: MOLT-4 leukemia
NCI-H23 lung = tested on: NCI-H23 lung
NCI-H460 lung = tested on: NCI-H460 lung
NCI-H522 lung = tested on: NCI-H522 lung
NCI/ADR-RES ovarian = tested on: NCI/ADR-RES ovarian
OVCAR-3 ovarian = tested on: OVCAR-3 ovarian
OVCAR-4 ovarian = tested on: OVCAR-4 ovarian
OVCAR-5 ovarian = tested on: OVCAR-5 ovarian
OVCAR-8 ovarian = tested on: OVCAR-8 ovarian
PC-3 prostate = tested on: PC-3 prostate
RPMI-8226 leukemia = tested on: RPMI-8226 leukemia
RXF 393 renal = tested on: RXF 393 renal
SF-268 CNS = tested on: SF-268 CNS
SF-295 CNS = tested on: SF-295 CNS
SF-539 CNS = tested on: SF-539 CNS
SK-MEL-2 melanoma = tested on: SK-MEL-2 melanoma
SK-MEL-28 melanoma = tested on: SK-MEL-28 melanoma
SK-MEL-5 melanoma = tested on: SK-MEL-5 melanoma
SK-OV-3 ovarian = tested on: SK-OV-3 ovarian
SN12C renal = tested on: SN12C renal
SNB-19 CNS = tested on: SNB-19 CNS
SNB-75 CNS = tested on: SNB-75 CNS
SR leukemia = tested on: SR leukemia
SW-620 colon = tested on: SW-620 colon
T-47D breast = tested on: T-47D breast
TK-10 renal = tested on: TK-10 renal
U251 CNS = tested on: U251 CNS
UACC-257 melanoma = tested on: UACC-257 melanoma
UACC-62 melanoma = tested on: UACC-62 melanoma
UO-31 renal = tested on: UO-31 renal
K-562 leukemia = tested on: K-562 leukemia
NCI-H226 lung = tested on: NCI-H226 lung

## C[C@]1(O)CC[C@H]2[C@@H]3CCc4cc(O)ccc4[C@H]3CC[C@@]21C
786-0 renal
  TGI: > 100 µM
A498 renal
  TGI: 9.61 µM
A549 NSCLC
  TGI: 77.6 µM
ACHN renal
  TGI: > 100 µM
CAKI-1 renal
  TGI: > 100 µM
CCRF-CEM leukemia
  TGI: 80.1 µM
COLO 205 colon
  TGI: > 100 µM
DU-145 prostate
  GI50: 1.98 µM
  TGI: 8.25 µM
EKVX NSCLC
  TGI: 9.08 µM
HCC-2998 colon
  TGI: 0.937 µM
HCT-116 colon
  GI50: 0.703 µM
  TGI: > 100 µM
HCT-15 colon
  TGI: > 100 µM
HL-60(TB) leukemia
  TGI: 3.49 µM
HOP-62 NSCLC
  GI50: 18.4 µM
  TGI: > 100 µM
HOP-92 NSCLC
  TGI: 67.8 µM
HS 578T breast
  TGI: 4.98 µM
HT29 colon
  TGI: > 100 µM
IGROV1 ovarian
  TGI: 27.8 µM
KM12 colon
  TGI: 12.1 µM
LOX IMVI melanoma
  TGI: 72.5 µM
M14 melanoma
  TGI: 62.4 µM
MALME-3M melanoma
  TGI: 0.948 µM
MCF7 breast
  TGI: > 100 µM
MDA-MB-231 breast
  TGI: 88 µM
MDA-MB-435
  TGI: 0.761 µM
MDA-N
  TGI: 0.651 µM
MOLT-4 leukemia
  TGI: > 100 µM
NCI-H23 lung
  TGI: > 100 µM
NCI-H460 lung
  TGI: > 100 µM
NCI-H522 lung
  TGI: 5.08 µM
NCI/ADR-RES ovarian
  TGI: > 100 µM
OVCAR-3 ovarian
  GI50: 0.663 µM
  TGI: 42.9 µM
OVCAR-4 ovarian
  TGI: > 100 µM
OVCAR-5 ovarian
  TGI: > 100 µM
OVCAR-8 ovarian
  TGI: 64.8 µM
PC-3 prostate
  TGI: > 100 µM
RPMI-8226 leukemia
  TGI: 4.81 µM
RXF 393 renal
  TGI: 4.05 µM
SF-268 CNS
  TGI: 68.3 µM
SF-295 CNS
  TGI: 13 µM
SF-539 CNS
  TGI: 2.27 µM
SK-MEL-2 melanoma
  TGI: > 100 µM
SK-MEL-28 melanoma
  TGI: > 100 µM
SK-MEL-5 melanoma
  TGI: 11.7 µM
SK-OV-3 ovarian
  TGI: > 100 µM
SN12C renal
  GI50: 10.2 µM
  TGI: > 100 µM
SNB-19 CNS
  TGI: > 100 µM
SNB-75 CNS
  TGI: > 100 µM
SR leukemia
  TGI: 0.668 µM
SW-620 colon
  TGI: > 100 µM
T-47D breast
  TGI: > 100 µM
TK-10 renal
  TGI: 7.51 µM
U251 CNS
  TGI: > 100 µM
UACC-257 melanoma
  TGI: 77.1 µM
UACC-62 melanoma
  GI50: 1.48 µM
  TGI: 37.5 µM
UO-31 renal
  TGI: 61.2 µM

## COC(=O)[C@]12CC[C@H]3CN(C(=O)OCc4ccccc4)[C@H]([C@H]31)[C@H](c1ccco1)N2
786-0 renal
  TGI: > 100 µM
A498 renal
  TGI: 36.3 µM
A549 NSCLC
  TGI: > 100 µM
ACHN renal
  TGI: > 100 µM
CAKI-1 renal
  TGI: > 100 µM
CCRF-CEM leukemia
  TGI: > 100 µM
COLO 205 colon
  TGI: 40.9 µM
DU-145 prostate
  TGI: > 100 µM
EKVX NSCLC
  TGI: > 100 µM
HCC-2998 colon
  TGI: > 100 µM
HCT-116 colon
  TGI: > 100 µM
HCT-15 colon
  TGI: 84.5 µM
HL-60(TB) leukemia
  TGI: 84.4 µM
HOP-62 NSCLC
  TGI: > 100 µM
HOP-92 NSCLC
  TGI: > 100 µM
HS 578T breast
  TGI: > 100 µM
HT29 colon
  TGI: > 100 µM
IGROV1 ovarian
  TGI: > 100 µM
K-562 leukemia
  TGI: > 100 µM
KM12 colon
  TGI: > 100 µM
LOX IMVI melanoma
  TGI: > 100 µM
M14 melanoma
  TGI: > 100 µM
MALME-3M melanoma
  TGI: 80.2 µM
MCF7 breast
  TGI: > 100 µM
MDA-MB-231 breast
  TGI: > 100 µM
MDA-MB-435
  TGI: 61.8 µM
MDA-N
  TGI: > 100 µM
MOLT-4 leukemia
  TGI: 64.5 µM
NCI-H226 lung
  TGI: > 100 µM
NCI-H23 lung
  TGI: 42.2 µM
NCI-H460 lung
  TGI: > 100 µM
NCI-H522 lung
  TGI: 39.1 µM
NCI/ADR-RES ovarian
  TGI: 51.7 µM
OVCAR-3 ovarian
  TGI: > 100 µM
OVCAR-4 ovarian
  TGI: 31.2 µM
OVCAR-5 ovarian
  TGI: > 100 µM
OVCAR-8 ovarian
  TGI: > 100 µM
PC-3 prostate
  TGI: > 100 µM
RPMI-8226 leukemia
  TGI: > 100 µM
RXF 393 renal
  TGI: > 100 µM
SF-268 CNS
  TGI: > 100 µM
SF-295 CNS
  TGI: > 100 µM
SF-539 CNS
  TGI: > 100 µM
SK-MEL-2 melanoma
  TGI: > 100 µM
SK-MEL-28 melanoma
  TGI: > 100 µM
SK-MEL-5 melanoma
  TGI: 37.3 µM
SK-OV-3 ovarian
  TGI: > 100 µM
SN12C renal
  TGI: > 100 µM
SNB-19 CNS
  TGI: > 100 µM
SR leukemia
  TGI: > 100 µM
SW-620 colon
  TGI: > 100 µM
T-47D breast
  TGI: > 100 µM
TK-10 renal
  TGI: > 100 µM
U251 CNS
  TGI: > 100 µM
UACC-257 melanoma
  TGI: 81.4 µM
UACC-62 melanoma
  TGI: > 100 µM
UO-31 renal
  TGI: > 100 µM
